Test results reported in ChEMBL document CHEMBL1155917, “Use of the nitrile oxide cycloaddition (NOC) reaction for molecular probe generation: a new class of enzyme selective histone deacetylase inhibitors (HDACIs) showing picomolar activity at HDAC6” (J Med Chem, 2008).

What was measured:
[1] = target: Histone deacetylase 2 (Homo sapiens, UniProt Q92769); assay: Inhibition of HDAC2 after 17 hrs
[2] = Antiproliferative activity against human SU.86.86 cells after 72 hrs by MTT assay; format: functional, cell-based; settings: SU.86.86, 72 h
[3] = target: T1, Polyamine deacetylase HDAC10 (Homo sapiens, UniProt Q969S8)
T1 sequence (Q969S8 whole entry): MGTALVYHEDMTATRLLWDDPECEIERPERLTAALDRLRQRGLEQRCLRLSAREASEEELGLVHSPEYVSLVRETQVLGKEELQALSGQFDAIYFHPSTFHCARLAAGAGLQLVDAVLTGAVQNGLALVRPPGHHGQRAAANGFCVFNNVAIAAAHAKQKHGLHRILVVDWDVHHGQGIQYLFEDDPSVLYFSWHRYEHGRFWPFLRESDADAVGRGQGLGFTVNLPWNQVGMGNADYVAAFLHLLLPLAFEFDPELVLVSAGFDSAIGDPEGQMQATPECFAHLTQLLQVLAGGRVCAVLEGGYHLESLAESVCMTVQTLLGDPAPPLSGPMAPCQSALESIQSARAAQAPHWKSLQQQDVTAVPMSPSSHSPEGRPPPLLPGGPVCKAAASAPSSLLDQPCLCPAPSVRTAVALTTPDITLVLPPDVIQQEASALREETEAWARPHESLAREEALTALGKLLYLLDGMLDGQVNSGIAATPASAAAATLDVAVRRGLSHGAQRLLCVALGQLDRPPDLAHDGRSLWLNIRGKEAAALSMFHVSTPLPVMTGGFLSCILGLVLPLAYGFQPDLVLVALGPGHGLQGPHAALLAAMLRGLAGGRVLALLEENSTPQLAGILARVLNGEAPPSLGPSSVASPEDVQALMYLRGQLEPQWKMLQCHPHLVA
Description: Inhibition of HDAC10 after 17 hrs

[4] = target: Histone deacetylase 3 (Homo sapiens, UniProt O15379); assay: Inhibition of HDAC3 after 17 hrs
Sequence of Histone deacetylase 3 (O15379 whole entry): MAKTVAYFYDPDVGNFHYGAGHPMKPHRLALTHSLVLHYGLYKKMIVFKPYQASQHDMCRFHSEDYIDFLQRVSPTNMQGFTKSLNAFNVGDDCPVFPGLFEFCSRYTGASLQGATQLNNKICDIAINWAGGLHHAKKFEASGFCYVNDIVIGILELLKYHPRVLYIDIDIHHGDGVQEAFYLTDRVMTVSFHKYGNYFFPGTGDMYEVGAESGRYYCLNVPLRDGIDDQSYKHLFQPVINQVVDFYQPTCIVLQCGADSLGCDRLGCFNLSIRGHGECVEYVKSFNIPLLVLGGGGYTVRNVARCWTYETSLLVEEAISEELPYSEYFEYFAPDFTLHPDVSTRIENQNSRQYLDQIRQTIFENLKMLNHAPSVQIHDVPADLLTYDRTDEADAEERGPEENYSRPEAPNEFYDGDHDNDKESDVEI

[5] = system: BXPC-3; assay: Antiproliferative activity against human BxPC3 cells after 72 hrs by MTT assay; format: functional, cell-based; settings: BXPC-3, 72 h
[6] = Antiproliferative activity against human Panc04.03 cells after 72 hrs by MTT assay; format: functional, cell-based; settings: Panc 04.03, 72 h
[7] = target: T2, Histone deacetylase 8 (Homo sapiens, UniProt Q9BY41)
T2 sequence (Q9BY41 whole entry): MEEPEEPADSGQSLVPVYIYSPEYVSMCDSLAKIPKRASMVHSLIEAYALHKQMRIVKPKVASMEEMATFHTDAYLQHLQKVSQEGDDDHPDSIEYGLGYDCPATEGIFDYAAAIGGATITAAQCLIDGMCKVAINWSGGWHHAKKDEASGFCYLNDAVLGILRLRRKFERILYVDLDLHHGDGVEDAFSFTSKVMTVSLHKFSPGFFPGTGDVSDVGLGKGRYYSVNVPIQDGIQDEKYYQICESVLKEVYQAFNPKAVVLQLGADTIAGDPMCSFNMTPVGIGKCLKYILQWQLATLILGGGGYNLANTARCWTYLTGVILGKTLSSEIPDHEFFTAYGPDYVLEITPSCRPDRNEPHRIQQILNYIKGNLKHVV
Description: Inhibition of HDAC8 after 17 hrs

[8] = system: HuP-T3; assay: Antiproliferative activity against human HupT3 cells after 72 hrs by MTT assay; format: functional, cell-based; settings: HuP-T3, 72 h
[9] = target: Histone deacetylase 1 (Homo sapiens, UniProt Q13547)
Sequence of Histone deacetylase 1 (Q13547 whole entry): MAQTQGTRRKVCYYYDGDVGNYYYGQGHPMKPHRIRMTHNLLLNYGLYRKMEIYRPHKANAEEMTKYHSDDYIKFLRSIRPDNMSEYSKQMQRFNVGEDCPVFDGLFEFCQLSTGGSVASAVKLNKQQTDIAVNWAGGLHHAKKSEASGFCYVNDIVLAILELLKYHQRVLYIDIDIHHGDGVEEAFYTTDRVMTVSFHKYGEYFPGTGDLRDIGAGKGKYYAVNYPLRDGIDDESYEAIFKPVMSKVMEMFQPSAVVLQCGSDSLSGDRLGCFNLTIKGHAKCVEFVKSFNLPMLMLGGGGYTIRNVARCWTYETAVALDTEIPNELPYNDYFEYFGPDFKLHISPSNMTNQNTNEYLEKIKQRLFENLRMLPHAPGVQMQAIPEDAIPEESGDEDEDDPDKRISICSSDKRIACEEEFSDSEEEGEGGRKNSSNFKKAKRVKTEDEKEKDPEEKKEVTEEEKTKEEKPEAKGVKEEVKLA
Description: Inhibition of HDAC1 after 17 hrs

[10] = target: T3, Protein deacetylase HDAC6 (Homo sapiens, UniProt Q9UBN7); assay: Inhibition of HDAC6 after 17 hrs
T3 sequence (Q9UBN7 whole entry): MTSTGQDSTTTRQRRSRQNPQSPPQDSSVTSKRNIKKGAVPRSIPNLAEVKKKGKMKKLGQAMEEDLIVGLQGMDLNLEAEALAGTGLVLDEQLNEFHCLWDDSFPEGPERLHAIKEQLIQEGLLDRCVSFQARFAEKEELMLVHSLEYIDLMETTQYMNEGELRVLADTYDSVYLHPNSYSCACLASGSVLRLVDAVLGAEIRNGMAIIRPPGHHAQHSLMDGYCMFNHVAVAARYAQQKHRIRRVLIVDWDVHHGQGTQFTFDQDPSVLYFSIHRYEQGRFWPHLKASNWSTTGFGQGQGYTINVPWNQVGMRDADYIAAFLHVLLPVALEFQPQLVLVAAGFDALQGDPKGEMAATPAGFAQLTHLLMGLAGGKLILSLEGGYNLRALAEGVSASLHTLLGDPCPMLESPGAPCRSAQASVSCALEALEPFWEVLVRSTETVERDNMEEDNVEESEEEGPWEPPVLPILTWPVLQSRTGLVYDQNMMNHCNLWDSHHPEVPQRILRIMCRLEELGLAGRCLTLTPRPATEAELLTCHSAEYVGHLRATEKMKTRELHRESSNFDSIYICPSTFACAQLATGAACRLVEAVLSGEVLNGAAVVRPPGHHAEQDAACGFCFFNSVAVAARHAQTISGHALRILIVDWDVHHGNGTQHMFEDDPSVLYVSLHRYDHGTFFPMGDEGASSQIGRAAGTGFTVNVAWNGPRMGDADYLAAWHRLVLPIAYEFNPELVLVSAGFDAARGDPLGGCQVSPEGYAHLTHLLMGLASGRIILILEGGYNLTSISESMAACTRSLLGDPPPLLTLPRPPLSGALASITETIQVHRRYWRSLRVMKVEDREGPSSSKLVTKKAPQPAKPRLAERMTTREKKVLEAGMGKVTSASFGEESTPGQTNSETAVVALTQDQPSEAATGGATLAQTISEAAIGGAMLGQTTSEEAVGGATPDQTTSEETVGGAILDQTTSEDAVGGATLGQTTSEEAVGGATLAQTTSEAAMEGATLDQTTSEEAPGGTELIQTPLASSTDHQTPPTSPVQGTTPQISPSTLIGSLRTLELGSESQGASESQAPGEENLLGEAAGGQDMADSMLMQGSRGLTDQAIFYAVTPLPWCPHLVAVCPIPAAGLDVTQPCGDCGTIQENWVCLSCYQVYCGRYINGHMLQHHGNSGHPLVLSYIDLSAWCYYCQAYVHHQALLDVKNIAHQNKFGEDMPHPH

[11] = system: MIA PaCa-2; assay: Antiproliferative activity against human MiaPaca2 cells after 72 hrs by MTT assay; format: functional, cell-based; settings: MIA PaCa-2, 72 h
[12] = system: HMEC; assay: Cytotoxicity against HMEC after 72 hrs by MTT assay; format: ADME, cell-based; settings: Homo sapiens
[13] = Cytotoxicity against HPDE 6c7 cells after 72 hrs by MTT assay; format: ADME, cell-based; settings: Homo sapiens, HPDE6c7, 72 h

Sequence of Histone deacetylase 2 (Q92769 whole entry): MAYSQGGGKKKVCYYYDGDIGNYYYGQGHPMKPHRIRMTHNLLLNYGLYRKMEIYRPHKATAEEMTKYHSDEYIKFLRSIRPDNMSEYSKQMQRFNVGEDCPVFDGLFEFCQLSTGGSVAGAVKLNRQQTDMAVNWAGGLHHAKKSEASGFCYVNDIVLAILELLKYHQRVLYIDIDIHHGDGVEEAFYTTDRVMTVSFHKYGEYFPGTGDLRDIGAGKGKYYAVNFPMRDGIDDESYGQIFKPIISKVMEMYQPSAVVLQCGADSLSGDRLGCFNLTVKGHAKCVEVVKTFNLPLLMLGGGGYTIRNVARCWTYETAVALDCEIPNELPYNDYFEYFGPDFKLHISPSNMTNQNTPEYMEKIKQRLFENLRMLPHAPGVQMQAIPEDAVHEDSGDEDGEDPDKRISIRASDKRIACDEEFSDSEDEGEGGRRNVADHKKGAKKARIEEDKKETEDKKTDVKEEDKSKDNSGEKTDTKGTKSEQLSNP

Row | SMILES | IC50 [1] | IC50 [2] | IC50 [3] | IC50 [4] | IC50 [5] | IC50 [6] | IC50 [7] | IC50 [8] | IC50 [9] | IC50 [10] | IC50 [11] | IC50 [12] | IC50 [13]
1 | O=C(CCCCOCc1cc(-c2ccccc2)on1)NO | 133 nM | 1000 nM | 155 nM | 12.9 nM | 7000 nM | 1500 nM | 3320 nM | 400 nM | 124 nM | 49.5 nM | 1000 nM | – | –
2 | Nc1ccc(-c2cc(C(=O)NCCCCC(=O)NO)no2)cc1 | 1050 nM | 11000 nM | 401 nM | 65.8 nM | 33000 nM | 17000 nM | 2830 nM | 7000 nM | 360 nM | 35.1 nM | 10000 nM | – | –
3 | CC(C)(C)OC(=O)Nc1cccc(-c2cc(C(=O)NCCCCCCC(=O)NO)no2)c1 | 238 nM | 1000 nM | 28.2 nM | < 0.002 nM | 1000 nM | 1000 nM | 8100 nM | 800 nM | 100 nM | < 0.002 nM | 700 nM | 7000 nM | 1500 nM
4 | Nc1cccc(-c2cc(C(=O)NCCCCCCC(=O)NO)no2)c1 | 56.7 nM | 200 nM | 17.5 nM | 4.04 nM | 700 nM | 900 nM | 938 nM | 100 nM | 20.7 nM | 2.54 nM | 100 nM | < 1000 nM | 200 nM
5 | CC(=O)Nc1ccc(-c2cc(C(=O)NCCCCCCC(=O)NO)no2)cc1 | 131 nM | 1000 nM | 73 nM | 18 nM | 6000 nM | 4000 nM | 4900 nM | 1000 nM | 64.5 nM | 6.81 nM | 900 nM | – | –
6 | CC(C)(C)OC(=O)Nc1cccc(-c2cc(C(=O)NCCCCC(=O)NO)no2)c1 | 2980 nM | 22000 nM | 891 nM | 83.6 nM | 36000 nM | 14000 nM | 5810 nM | 14000 nM | 826 nM | 3.98 nM | 8000 nM | – | –
7 | Nc1ccc(-c2cc(C(=O)NCCCCCCC(=O)NO)no2)cc1 | 147 nM | 800 nM | 44.9 nM | 10.2 nM | 800 nM | 100 nM | 3460 nM | 200 nM | 56.3 nM | 5.86 nM | 100 nM | < 1000 nM | 400 nM
8 | CC(C)(C)OC(=O)Nc1ccc(-c2cc(C(=O)NCCCCCCC(=O)NO)no2)cc1 | 252 nM | 600 nM | 90.7 nM | 0.42 nM | 1000 nM | 100 nM | 6850 nM | 300 nM | 271 nM | – | 100 nM | < 1000 nM | 500 nM
9 | Nc1cccc(-c2cc(C(=O)NCCCCC(=O)NO)no2)c1 | 1940 nM | 25000 nM | 840 nM | 144 nM | 38000 nM | > 50000 nM | 3430 nM | 37000 nM | 716 nM | 72.2 nM | 25000 nM | – | –
10 | CC(C)(C)OC(=O)Nc1ccc(-c2cc(C(=O)NCCCCC(=O)NO)no2)cc1 | 1740 nM | 24000 nM | 690 nM | 115 nM | 25000 nM | 16000 nM | 3650 nM | 10000 nM | 628 nM | 31.6 nM | 12000 nM | – | –
11 | O=C(CCCCNC(=O)c1cc(-c2ccccc2)on1)NO | 1690 nM | 5000 nM | 852 nM | 158 nM | 28000 nM | 5000 nM | 3580 nM | 5000 nM | 644 nM | 61.9 nM | 4000 nM | – | –
